# According to patent US20110190263A1, “COMPOUNDS AND COMPOSITIONS AS MODULATORS OF GPR119 ACTIVITY” (IRM LLC, priority 2008, published 2011):
# Target: T1, human GPR119 (Homo sapiens, UniProt Q8TDV5)
# T1 construct: expressed in transfected cells
# T1 sequence (Q8TDV5 1-335): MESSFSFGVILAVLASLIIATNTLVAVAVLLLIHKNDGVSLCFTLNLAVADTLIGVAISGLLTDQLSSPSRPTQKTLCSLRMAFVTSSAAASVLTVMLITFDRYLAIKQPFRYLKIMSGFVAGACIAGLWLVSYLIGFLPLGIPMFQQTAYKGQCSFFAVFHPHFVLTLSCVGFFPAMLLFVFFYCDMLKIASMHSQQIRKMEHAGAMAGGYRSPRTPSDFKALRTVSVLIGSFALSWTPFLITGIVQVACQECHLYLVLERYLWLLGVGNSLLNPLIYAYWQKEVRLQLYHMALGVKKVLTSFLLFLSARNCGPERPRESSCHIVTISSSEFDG
# Test: Cyclic AMP assay in stable cell line (Flp-In-CHO-hGPR119, HTRF)
# Format: cell-based
# Settings: Flp-In-CHO-hGPR119 cells, intracellular cAMP by HTRF, 1 mM IBMX, 37° C. for 30 minutes
# Method: Flp-In-CHO cells (Invitrogen, Cat.# R758-07) are maintained in Ham's F12 medium supplemented with 10% fetal bovine serum, 1% antibiotic mixture and 2 mM L-glutamine. The cells are transfected with a DNA mixture containing human GPR119 in pcDNA5/FRT vector and the pOG44 vector (1:9) using Fugene6 (Roche), according to the manufacturer's instruction. After 48 hours, the medium is changed to medium supplemented with 400 μg/ml hygromycin B to initiate the selection of stably transfected cells.
# To test the activity of compounds of the invention, Flp-In-CHO-hGPR119 cells are harvested and resuspended in DMEM plus 3% lipid-depleted fetal bovine serum. Forth μl of cells are plated in 384 well plates at a density of 15,000 cells/well. IBMX (3-isobutyl-1-methyl-xanthine) is added to the cells to a final concentration of 1 mM, followed by the addition of 500 nl of the compound to be tested. The cells are incubated at 37° C. for 30 minutes. Equal volume (20 μl) of the HTRF reagents, anti-cAMP-Cryptate and cAMP-XL665, are added to the cells. The plates are incubated at room temperature for 1 hour and read on a HTRF reader according to the manufacturer's instruction.
row,SMILES,EC50
1,"CS(=O)(=O)N1CCc2nc(CNCCc3cccc(Br)c3)ncc2C1 [Example B3, 2-(3-bromophenyl)-N-((6-(methylsulfonyl)-5,6,7,8-tetrahydropyrido[4,3-d]pyrimidin-2-yl)methyl)ethanamine]",2440 nM
2,CCc1cnc(N2CCC(COCC3CN(c4ncc5c(n4)CCN(S(C)(=O)=O)C5)C3)CC2)nc1 [Example G5],666 nM
3,CCc1cnc(N2CCC(COC3CCN(c4ncc5c(n4)CCN(S(C)(=O)=O)C5)CC3)CC2)nc1 [Example G9],317 nM
4,"CC1(OC(=O)N2CCC(CCCOc3ncc4c(n3)CCN(S(C)(=O)=O)C4)CC2)CC1 [Example D2, 1-Methylcyclopropyl 4-(3-(6-(methylsulfonyl)-5,6,7,8-tetrahydropyrido[4,3-d]pyrimidin-2-yloxy)propyl)piperidine-1-carboxylate]",2 nM
5,"CCc1cnc(N2CCC(CCCOc3ncc4c(n3)CCN(S(=O)(=O)CCCO)C4)CC2)nc1 [Example D9, 3-(2-{3-[1-(5-ethylpyrimidin-2-yl)piperidin-4-yl]propoxy}-5H,6H,7H,8H-pyrido[4,3-d]pyrimidine-6-sulfonyl)propan-1-ol]",5 nM
6,"CC1(OC(=O)N2CCC(CCOCc3ncc4c(n3)CCN(S(C)(=O)=O)C4)CC2)CC1 [Example C1, 1-Methylcyclopropyl 4-(2-((6-(methylsulfonyl)-5,6,7,8-tetrahydropyrido[4,3-d]pyrimidin-2-yl)methoxy)ethyl)piperidine-1-carboxylate]",514 nM
7,CC(C)(C)OC(=O)N1CC(OCC2CCN(c3ncc4c(n3)CCN(S(C)(=O)=O)C4)CC2)C1 [Example G7],22 nM
8,"CCc1cnc(N2CCC(COC3CN(c4ncc5c(n4)CCN(S(C)(=O)=O)C5)C3)CC2)nc1 [Example G1, 2-(3-((1-(5-Ethylpyrimidin-2-yl)piperidin-4-yl)methoxy)azetidin-1-yl)-6-(methylsulfonyl)-5,6,7,8-tetrahydropyrido[4,3-d]pyrimidine]",9 nM
9,"CO[C@H]1CN(C(=O)OC2(C)CC2)CC[C@H]1COC1CN(c2ncc3c(n2)CCN(S(C)(=O)=O)C3)C1 (racemic) [Example J1, (±)-(3R,45)-1-Methylcyclopropyl 3-methoxy-4-((1-(6-(methylsulfonyl)-5,6,7,8-tetrahydropyrido[4,3-d]pyrimidin-2-yl)azetidin-3-yloxy)methyl)piperidine-1-carboxylate]",711 nM
10,CC1(OC(=O)N2CCC(COC3CN(c4ncc5c(n4)CCN(S(C)(=O)=O)C5)C3)CC2)CC1 [Example G6],28 nM
11,"CN(CCCC1CCN(C(=O)OC2(C)CC2)CC1)c1ncc2c(n1)CCN(S(C)(=O)=O)C2 [Example D8, 1-methylcyclopropyl 4-(3-(methyl(6-(methylsulfonyl)-5,6,7,8-tetrahydropyrido[4,3-d]pyrimidin-2-yl)amino)propyl)piperidine-1-carboxylate]",10 nM
12,"CCc1cnc(N2CCC(C(C)OC3CN(c4ncc5c(n4)CCN(S(C)(=O)=O)C5)C3)CC2)nc1 (racemic) [Example H1, (±)-2-(3-(1-(1-(5-Ethylpyrimidin-2-yl)piperidin-4-yl)ethoxy)azetidin-1-yl)-6-(methylsulfonyl)-5,6,7,8-tetrahydropyrido[4,3-d]pyrimidine]",183 nM
13,"CC(C)OC(=O)N1CCC(CCCCOc2nccc3c2CCN(S(C)(=O)=O)C3)CC1 [Example A9, isopropyl 4-(4-(6-(methylsulfonyl)-5,6,7,8-tetrahydro-2,6-naphthyridin-1-yloxy)butyl)piperidine-1-carboxylate]",191 nM
14,"CCc1cnc(N2CCC(CCCOc3ncc4c(n3)CCN(S(C)(=O)=O)C4)CC2)nc1 [Example D3, 2-(3-(1-(5-Ethylpyrimidin-2-yl)piperidin-4-yl)propoxy)-6-(methylsulfonyl)-5,6,7,8-tetrahydropyrido[4,3-d]pyrimidine]",4 nM
15,"CCc1cnc(N2CCC(CCCOc3ccc4c(n3)CCN(S(C)(=O)=O)C4)CC2)nc1 [Example F1, 2-(3-(1-(5-Ethylpyrimidin-2-yl)piperidin-4-yl)propoxy)-6-(methylsulfonyl)-5,6,7,8-tetrahydro-1,6-naphthyridine]",27 nM
16,"CC(C)OC(=O)N1CCC(CCCCOC2=NCCC3CN(S(C)(=O)=O)CCC23)CC1 (centres unmarked) [Example A8, isopropyl 4-(4-(6-(methylsulfonyl)-3,4,4a,5,6,7,8,8a-octahydro-2,6-naphthyridin-1-yloxy)butyl)piperidine-1-carboxylate]",137 nM
17,"CC1(OC(=O)N2CCC(Cc3cn(-c4ncc5c(n4)CCN(S(C)(=O)=O)C5)cn3)CC2)CC1 [Example G18, 1-methylcyclopropyl 4-[(1-{6-methanesulfonyl-5H,6H,7H,8H-pyrido[4,3-d]pyrimidin-2-yl}-1H-imidazol-4-yl)methyl]piperidine-1-carboxylate]",122 nM
18,"CCc1cnc(N2CCC(OCCOc3ncc4c(n3)CCN(S(C)(=O)=O)C4)CC2)nc1 [Example E1, 2-(2-(1-(5-ethylpyrimidin-2-yl)piperidin-4-yloxy)ethoxy)-6-(methylsulfonyl)-5,6,7,8-tetrahydropyrido[4,3-d]pyrimidine]",212 nM
19,"CC(C)OC(=O)N1CCC(N2CCC3CN(S(C)(=O)=O)CCC3C2=O)CC1 (centres unmarked) [Example A5, isopropyl 4-(6-(methylsulfonyl)-1-oxooctahydro-2,6-naphthyridin-2(1H)-yl)piperidine-1-carboxylate]",4360 nM
20,"C[C@H]1CN(C(=O)OC2(C)CC2)CC[C@H]1COC1CN(c2ncc3c(n2)CCN(S(C)(=O)=O)C3)C1 [Example J2, 1-methylcyclopropyl(3R,4R)-4-{[(1-{6-methanesulfonyl-5H,6H,7H,8H-pyrido[4,3-d]pyrimidin-2-yl}azetidin-3-yl)oxy]methyl}-3-methylpiperidine-1-carboxylate]",174 nM
21,"CS(=O)(=O)N1CCc2nc(OCCCc3ccc(-n4cccn4)nc3)ncc2C1 [Example G16, 5-[3-({6-methanesulfonyl-5H,6H,7H,8H-pyrido[4,3-d]pyrimidin-2-yl}oxy)propyl]-2-(1H-pyrazol-1-yl)pyridine]",1020 nM
22,"CC(C)OC(=O)N1CCC(CCCCn2ccc3c(c2=O)CCN(S(C)(=O)=O)C3)CC1 [Example A7, isopropyl 4-(4-(6-(methylsulfonyl)-1-oxo-5,6,7,8-tetrahydro-2,6-naphthyridin-2(1H)-yl)butyl)piperidine-1-carboxylate]",94 nM
23,"CC1(OC(=O)N2CCC(CCCNc3ncc4c(n3)CCN(S(C)(=O)=O)C4)CC2)CC1 [Example D7, 1-methylcyclopropyl 4-(3-(6-(methylsulfonyl)-5,6,7,8-tetrahydropyrido[4,3-d]pyrimidin-2-ylamino)propyl)piperidine-1-carboxylate]",8 nM
24,CC(C)c1noc(N2CCC(COC3CN(c4ncc5c(n4)CCN(S(C)(=O)=O)C5)C3)CC2)n1 [Example G11],170 nM
25,"CC(C)c1noc(N2CCC(CCCNc3ncc4c(n3)CCN(S(C)(=O)=O)C4)CC2)n1 [Example D4, N-(3-(1-(3-isopropyl-1,2,4-oxadiazol-5-yl)piperidin-4-yl)propyl)-6-(methylsulfonyl)-5,6,7,8-tetrahydropyrido[4,3-d]pyrimidin-2-amine]",6 nM
26,"CCc1cnc(N2CCc3c(cccc3OC3CN(c4ncc5c(n4)CCN(S(C)(=O)=O)C5)C3)C2)nc1 [Example I1, 2-(3-(2-(5-Ethylpyrimidin-2-yl)-1,2,3,4-tetrahydroisoquinolin-5-yloxy)azetidin-1-yl)-6-(methylsulfonyl)-5,6,7,8-tetrahydropyrido[4,3-d]pyrimidine]",49 nM
27,"CCc1cnc(N2CCC(CCCNc3ncc4c(n3)CCN(S(C)(=O)=O)C4)CC2)nc1 [Example D5, N-(3-(1-(5-Ethylpyrimidin-2-yl)piperidin-4-yl)propyl)-6-(methylsulfonyl)-5,6,7,8-tetrahydropyrido[4,3-d]pyrimidin-2-amine]",7 nM
28,"CC(C)OC(=O)N1CCC(Oc2nccc3c2CCN(S(C)(=O)=O)C3)CC1 [Example A4, isopropyl 4-(6-(methylsulfonyl)-5,6,7,8-tetrahydro-2,6-naphthyridin-1-yloxy)piperidine-1-carboxylate]",3710 nM
29,"CCc1cnc(-c2ccc(CCCOc3ncc4c(n3)CCN(S(C)(=O)=O)C4)cc2)nc1 [Example G15, 5-ethyl-2-{4-[3-({6-methanesulfonyl-5H,6H,7H,8H-pyrido[4,3-d]pyrimidin-2-yl}oxy)propyl]phenyl}pyrimidine]",366 nM
